Measurements as given in patent US8846949B2, “Pyrrolopyrazoles as N-type calcium channel blockers” (Janssen Pharmaceutica NV, priority 2012, dated 2014).
Read-outs that look alike come from different tables or passages of the source.

Legend:
[1] = biological target: T1, N-type calcium channel α1B (Cav2.2), β3 and α2δ subunits (Homo sapiens, UniProt Q00975); test: Functional assay, antagonism of N-type calcium channel (FDSS calcium mobilization response to KCl depolarization); format: cell-based; details: HEK stable cell line; 50 mM KCl depolarization; six-point concentration-response
T1 construct: expressed in transfected cells
T1 sequence (Q00975 whole entry): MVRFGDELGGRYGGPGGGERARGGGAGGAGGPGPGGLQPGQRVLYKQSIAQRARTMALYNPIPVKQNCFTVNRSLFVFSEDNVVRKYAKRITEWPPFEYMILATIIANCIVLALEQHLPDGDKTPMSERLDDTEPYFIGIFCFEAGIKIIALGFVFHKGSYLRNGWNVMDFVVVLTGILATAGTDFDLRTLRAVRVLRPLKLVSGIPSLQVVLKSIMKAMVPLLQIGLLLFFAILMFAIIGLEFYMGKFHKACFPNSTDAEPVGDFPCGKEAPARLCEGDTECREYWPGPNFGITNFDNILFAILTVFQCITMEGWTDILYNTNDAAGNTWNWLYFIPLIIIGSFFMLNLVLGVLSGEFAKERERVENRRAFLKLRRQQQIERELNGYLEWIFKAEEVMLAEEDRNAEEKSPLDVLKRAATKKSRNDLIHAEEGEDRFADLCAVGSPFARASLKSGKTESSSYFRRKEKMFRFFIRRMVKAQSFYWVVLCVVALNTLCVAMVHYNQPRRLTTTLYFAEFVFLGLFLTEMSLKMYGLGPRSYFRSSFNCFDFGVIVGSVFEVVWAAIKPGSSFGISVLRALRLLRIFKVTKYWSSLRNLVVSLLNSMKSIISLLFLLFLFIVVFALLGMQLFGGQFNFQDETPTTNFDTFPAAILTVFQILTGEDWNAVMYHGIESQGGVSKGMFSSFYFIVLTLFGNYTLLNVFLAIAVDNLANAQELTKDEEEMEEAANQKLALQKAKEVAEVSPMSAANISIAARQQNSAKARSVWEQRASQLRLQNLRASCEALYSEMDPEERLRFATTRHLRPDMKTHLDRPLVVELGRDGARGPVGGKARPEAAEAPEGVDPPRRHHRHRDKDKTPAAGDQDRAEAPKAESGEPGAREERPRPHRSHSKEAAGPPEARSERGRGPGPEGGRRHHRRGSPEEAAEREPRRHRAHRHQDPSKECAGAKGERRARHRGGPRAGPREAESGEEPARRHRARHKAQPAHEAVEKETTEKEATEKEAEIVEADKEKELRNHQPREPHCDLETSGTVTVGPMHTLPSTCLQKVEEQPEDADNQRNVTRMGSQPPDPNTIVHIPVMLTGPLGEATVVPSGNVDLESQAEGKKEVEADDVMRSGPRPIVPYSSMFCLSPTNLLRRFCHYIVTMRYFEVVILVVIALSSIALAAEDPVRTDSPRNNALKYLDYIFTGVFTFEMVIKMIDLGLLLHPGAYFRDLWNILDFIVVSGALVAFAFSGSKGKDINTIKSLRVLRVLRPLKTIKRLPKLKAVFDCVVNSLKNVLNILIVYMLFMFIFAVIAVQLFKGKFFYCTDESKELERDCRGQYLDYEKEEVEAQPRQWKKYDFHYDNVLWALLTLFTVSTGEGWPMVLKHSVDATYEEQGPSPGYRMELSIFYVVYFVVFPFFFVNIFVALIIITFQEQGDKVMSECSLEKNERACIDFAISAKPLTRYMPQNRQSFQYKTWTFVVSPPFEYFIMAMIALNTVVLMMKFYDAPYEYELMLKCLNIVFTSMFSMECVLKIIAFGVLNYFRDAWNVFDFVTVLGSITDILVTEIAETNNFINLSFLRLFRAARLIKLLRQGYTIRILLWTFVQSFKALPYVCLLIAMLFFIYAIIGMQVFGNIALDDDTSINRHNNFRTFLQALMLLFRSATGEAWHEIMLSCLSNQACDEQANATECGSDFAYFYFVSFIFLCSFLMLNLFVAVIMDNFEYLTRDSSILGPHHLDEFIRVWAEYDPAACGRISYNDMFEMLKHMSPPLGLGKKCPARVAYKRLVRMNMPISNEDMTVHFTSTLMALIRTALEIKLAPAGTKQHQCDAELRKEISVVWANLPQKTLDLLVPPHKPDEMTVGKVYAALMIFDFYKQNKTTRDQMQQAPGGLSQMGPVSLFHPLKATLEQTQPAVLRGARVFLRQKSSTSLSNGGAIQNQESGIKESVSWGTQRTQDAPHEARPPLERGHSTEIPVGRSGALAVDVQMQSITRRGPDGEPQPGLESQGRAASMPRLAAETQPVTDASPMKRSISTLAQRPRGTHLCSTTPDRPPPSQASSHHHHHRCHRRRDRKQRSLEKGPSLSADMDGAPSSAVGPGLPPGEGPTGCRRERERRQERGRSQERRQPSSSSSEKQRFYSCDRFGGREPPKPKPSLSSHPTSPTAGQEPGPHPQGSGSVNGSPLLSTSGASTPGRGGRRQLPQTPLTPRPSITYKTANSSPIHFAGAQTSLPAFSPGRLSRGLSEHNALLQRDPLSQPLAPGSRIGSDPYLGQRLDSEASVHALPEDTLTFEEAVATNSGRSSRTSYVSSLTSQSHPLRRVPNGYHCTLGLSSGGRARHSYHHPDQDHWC
T1 sequence (P54284 whole entry partner): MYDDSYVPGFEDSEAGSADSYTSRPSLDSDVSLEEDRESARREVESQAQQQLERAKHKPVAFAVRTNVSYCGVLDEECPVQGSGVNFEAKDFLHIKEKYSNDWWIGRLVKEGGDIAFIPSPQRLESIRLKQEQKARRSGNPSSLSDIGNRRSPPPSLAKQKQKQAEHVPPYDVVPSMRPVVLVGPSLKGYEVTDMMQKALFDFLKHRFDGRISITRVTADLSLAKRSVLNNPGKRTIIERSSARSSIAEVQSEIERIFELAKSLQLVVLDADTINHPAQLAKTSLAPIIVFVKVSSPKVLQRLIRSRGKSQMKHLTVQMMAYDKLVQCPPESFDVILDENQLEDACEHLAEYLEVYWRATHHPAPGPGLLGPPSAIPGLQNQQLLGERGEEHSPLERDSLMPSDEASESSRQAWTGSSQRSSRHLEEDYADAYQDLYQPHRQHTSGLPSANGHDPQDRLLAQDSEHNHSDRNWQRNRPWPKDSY
T1 sequence (P54289 25-956 partner limits assumed): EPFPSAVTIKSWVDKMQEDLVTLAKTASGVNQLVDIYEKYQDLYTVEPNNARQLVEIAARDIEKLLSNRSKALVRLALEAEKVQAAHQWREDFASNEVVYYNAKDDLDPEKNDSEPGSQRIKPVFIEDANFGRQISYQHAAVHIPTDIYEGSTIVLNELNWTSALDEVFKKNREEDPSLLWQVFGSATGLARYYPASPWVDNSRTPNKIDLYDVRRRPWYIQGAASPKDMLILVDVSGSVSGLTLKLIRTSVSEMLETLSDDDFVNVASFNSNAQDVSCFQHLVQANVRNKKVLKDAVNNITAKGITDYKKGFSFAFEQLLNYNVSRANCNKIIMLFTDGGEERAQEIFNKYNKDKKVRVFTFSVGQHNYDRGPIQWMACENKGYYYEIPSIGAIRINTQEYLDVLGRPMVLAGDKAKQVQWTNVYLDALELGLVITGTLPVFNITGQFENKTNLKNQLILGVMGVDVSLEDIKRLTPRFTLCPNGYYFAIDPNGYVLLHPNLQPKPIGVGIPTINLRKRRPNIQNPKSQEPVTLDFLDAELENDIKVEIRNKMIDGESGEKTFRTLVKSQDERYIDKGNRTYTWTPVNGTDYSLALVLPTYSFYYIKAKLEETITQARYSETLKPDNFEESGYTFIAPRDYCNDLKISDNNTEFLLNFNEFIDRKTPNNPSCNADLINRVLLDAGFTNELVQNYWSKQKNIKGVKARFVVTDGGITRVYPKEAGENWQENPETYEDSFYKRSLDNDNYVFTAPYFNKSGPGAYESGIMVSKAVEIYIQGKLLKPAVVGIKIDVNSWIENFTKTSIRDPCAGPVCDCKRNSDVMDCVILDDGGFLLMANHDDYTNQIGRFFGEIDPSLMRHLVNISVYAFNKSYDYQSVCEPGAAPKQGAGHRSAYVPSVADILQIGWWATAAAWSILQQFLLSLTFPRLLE
T1 sequence (P54289 957-1103 partner limits assumed): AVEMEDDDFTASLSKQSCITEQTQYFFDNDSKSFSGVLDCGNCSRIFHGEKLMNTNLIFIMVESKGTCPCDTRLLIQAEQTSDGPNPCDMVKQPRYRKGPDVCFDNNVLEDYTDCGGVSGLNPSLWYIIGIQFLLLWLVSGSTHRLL
Summary of the method: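 HEK cells stably co-expressing α1B (Cav2.2), β3 and α2δ subunits were loaded with calcium dye, preincubated with compound for 5 min, then depolarized with 50 mM KCl and read for 3 min by FDSS fluorescence. IC50 from six-point curves, normalized to KCl maximum and buffer minimum.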

N-type calcium channel = biological target: T2, N-type calcium channel (Homo sapiens, UniProt Q00975); test: Automated electrophysiology assay (QPatch-HT whole-cell patch clamp); format: cell-based; details: 0.1 μM
T2 construct: expressed in transfected cells
T2 sequence (Q00975 whole entry): as the sequence (Q00975 whole entry) above
T2 sequence (P54284 whole entry partner): as the sequence (P54284 whole entry partner) above
T2 sequence (P54289 25-956 partner limits assumed): as the sequence (P54289 25-956 partner limits assumed) above
T2 sequence (P54289 957-1103 partner limits assumed): as the sequence (P54289 957-1103 partner limits assumed) above
Summary of the method: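 Whole-cell QPatch recordings used 10 mM Ba²⁺/TEA external solution and CsCl internal solution. Trains of 15 pulses at 5 Hz to +20 mV from −80 mV were applied; 1st- and 15th-pulse currents were normalized to control, with CdCl2 zeroing. […]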

[2] = high frequency (15th pulse of train, 5 Hz), read-out: QPatch at High Frequency % Inhibition
[3] = low frequency (1st pulse of train), read-out: QPatch at Low Frequency % Inhibition

Compound | IC50 [1] [nM] | inhibition at 0.1 µM (N-type calcium channel; [2]) [%] | inhibition at 0.1 µM (N-type calcium channel; [3]) [%]
CCOc1ccccc1-n1nc2c(c1-c1ccc(Cl)cc1)CN(S(C)(=O)=O)C2 [Cpd 49, 3-(4-Chlorophenyl)-2-(2-ethoxyphenyl)-5-(methylsulfonyl)-2,4,5,6-tetrahydropyrrolo[3,4-c]pyrazole] | 2 | 22 | 18
CCOc1ccccc1-n1nc2c(c1-c1ccc(Cl)cc1)CN(S(=O)(=O)C1CCCC1)C2 [Cpd 51, 3-(4-Chlorophenyl)-5-(cyclopentylsulfonyl)-2-(2-ethoxyphenyl)-2,4,5,6-tetrahydropyrrolo[3,4-c]pyrazole] | 5 | 47 | 37
